According to ChEMBL document CHEMBL1151436, “In vitro evaluation of the activities of telavancin, cefazolin, and vancomycin against methicillin-susceptible and methicillin-resistant Staphylococcus aureus in peritoneal dialysate” (Antimicrob Agents Chemother, 2007):
Values after ≈ are worked out from the molar mass of the structure shown. Active and inactive are the calls of the source. The rule behind the calls is not given here.

What was measured:
[1] = system: Staphylococcus aureus; assay: Antibacterial activity against methicillin-susceptible Staphylococcus aureus ATCC 29213 in peritoneal dialysis fluid administered as bolus dose 2 hrs after infection measured after 24 hrs by broth dilution method; assay type: functional
[2] = system: Staphylococcus aureus; assay: Antibacterial activity against methicillin-resistant Staphylococcus aureus ATCC 33592 in peritoneal dialysis fluid administered as bolus dose 2 hrs after infection measured after 24 hrs by broth dilution method; assay type: functional
[3] = Protein binding in mouse plasma at 0.1 to 100 ug/mL by equilibrium dialysis; assay type: ADME, cell-free; settings: read-out: PB (converted)
[4] = system: Staphylococcus aureus; assay: Antibacterial activity against methicillin-susceptible Staphylococcus aureus ATCC 29213 in peritoneal dialysis fluid at 10 ug/mL administered as bolus dose 2 hrs after infection measured after 24 hrs by time-kill study; assay type: functional, organism-based
[5] = system: Staphylococcus aureus; assay: Antibacterial activity against methicillin-resistant Staphylococcus aureus ATCC 33592 in peritoneal dialysis fluid at 50 ug/mL administered as bolus dose 2 hrs after infection measured after 24 hrs by time-kill study; assay type: functional, organism-based
[6] = system: Staphylococcus aureus; assay: Antibacterial activity against methicillin-resistant Staphylococcus aureus ATCC 33592 in peritoneal dialysis fluid at 10 ug/mL administered as bolus dose 2 hrs after infection measured after 24 hrs by time-kill study; assay type: functional, organism-based
[7] = system: Staphylococcus aureus; assay: Antibacterial activity against methicillin-susceptible Staphylococcus aureus ATCC 29213 in peritoneal dialysis fluid at 50 ug/mL administered as bolus dose 2 hrs after infection measured after 24 hrs by time-kill study; assay type: functional, organism-based

Cc1nnc(SCC2=C(C(=O)O)N3C(=O)[C@@H](NC(=O)Cn4cnnn4)[C@H]3SC2)s1 [CEFAZOLIN]
MIC [1]: 0.5 µg/mL (≈ 1.1 µM) | MIC [2]: > 16 µg/mL

CCCCCCCCCCNCCN[C@@]1(C)C[C@H](O[C@H]2[C@H](Oc3c4cc5cc3Oc3ccc(cc3Cl)[C@@H](O)[C@@H](NC(=O)[C@@H](CC(C)C)NC)C(=O)N[C@@H](CC(N)=O)C(=O)N[C@H]5C(=O)N[C@H]3C(=O)N[C@H](C(=O)N[C@H](C(=O)O)c5cc(O)c(CNCP(=O)(O)O)c(O)c5-c5cc3ccc5O)[C@H](O)c3ccc(c(Cl)c3)O4)O[C@H](CO)[C@@H](O)[C@@H]2O)O[C@@H](C)[C@H]1O [TELAVANCIN]
MIC [1]: 0.25 µg/mL (≈ 0.142 µM) | MIC [2]: 0.125 µg/mL (≈ 0.0712 µM) | fraction unbound [3]: 0.05 | Activity [4]: Active | Activity [5]: Active | Activity [6]: Active | Activity [7]: Active
